The results in this text go back to US10294260B2, “Tetracyclic anthraquinone derivatives” (TIANJIN HEMAY ONCOLOGY PHARMACEUTICAL CO., LTD., priority 2012, dated 2019).

Data set [1] relates to mice of ICR strain. Put plainly: Assay on MTD (maximum tolerated dose) in vivo of mice. The following applies: for Number of Dead Animals ♂/♀ / Number of animals that died immediately after the injection (a) ♂/♀: male/female; for Number of animals that died immediately after the injection (a) ♂/♀: not counted in mortality rate. The method, then:
Assay on MTD (Maximum Tolerated Dose) In Vivo of Mice
Assay on Maximum Tolerated Dose of Compound
Assay animals: mice of ICR strain with a weight of 18-22 g, purchased from Beijing Vital River Laboratories Limited, License SCXK (jing) 2007-0001.
Administration Regimen: each experimental animal was administered with corresponding dosage of tested substance once by injection of caudal vain every three days. Each dosage was initially designed as 5 times of administration. The specific time of administration depended on the conditions of the animals. It should be carefully observed the behavior conditions of the animals within 2 hours after administration. The animal's behavior was observed every 4 hours in the day of administration. The survival conditions and weight of animals were recorded every day and observed for whether abnormality occurred on the body surface thereof. The experimental animals were sacrificed on 14 day after administration and dissected for observation.
I group: (20 mg/kg) group;
II group: (25 mg/kg) group;
III group: (30 mg/kg) group;
IV group: solvent control group;
There were four groups in total. Each group consisted of five male mice and five female mice.
I group: (40 mg/kg) group;
II group: (45 mg/kg) group;
III group: (50 mg/kg) group;
V group: (60 mg/kg) group;
There were five groups in total. Each group consisted of six male mice and six female mice.

The nature of data set [2]: Storage stability detected by HPLC. Format: physicochemical. Particulars: sealed and stored for 9 months under refrigeration conditions.

Turning to `COc1cccc2c1C(=O)c1c(O)c3c(c(O)c1C2=O)CC(O)(C(=O)COC(=O)CCC(=O)O)CC3OC1CC(n2cccc2)C(O)C(C)O1` (centres unmarked) [Compound A, 3′-pyrrolyldoxorubicin-14-oxo-succinic acid monoester], the “Number of Dead Animals ♂/♀” value in data set [1] (30 mg/kg, 5 administrations) is recorded as 0/1; in data set [1] (40 mg/kg, 5 administrations), 3/2; in data set [1] (50 mg/kg, 5 administrations) it was 5/5; in data set [1] (60 mg/kg, 5 administrations), 5/5. Besides, the “Mortality Rate (%)” value in data set [1] (30 mg/kg, 5 administrations, total dosage 150 mg/kg) came to 10%; in data set [1] (40 mg/kg, 5 administrations, total dosage 200 mg/kg), 50%; in data set [1] (50 mg/kg, 5 administrations, total dosage 250 mg/kg), 100%; in data set [1] (60 mg/kg, 5 administrations, total dosage 300 mg/kg), 100%.

In the case of `COc1cccc2c1C(=O)c1c(O)c3c(c(O)c1C2=O)CC(O)(C(=O)COC(=O)CCC(=O)NCCN1CCOCC1)CC3O[C@H]1C[C@H](n2cccc2)[C@H](O)[C@H](C)O1.O=P(O)(O)O` (stereo partly drawn) [Example 96, 10-((3′-(Pyrrol-1-yl)-2′,3′,6′-Trideoxy-Alpha-L-Lyxo-Hexylpyranyl)Oxy)-7,8,9,10-Tetrahydro-6,8,11-Trihydroxy-13-Oxo-14-(4-((2-(Morpholin-1-yl)Ethyl)Amino)-4-Oxo-Butyrato)-1-Methoxy-5,12-Naphthalenedione Phosphate], in data set [2], the “stability (degraded product by HPLC)” value is recorded as “No obvious degraded product was observed”. Besides, the “Number of Dead Animals ♂/♀” value in data set [1] (40 mg/kg, 5 administrations) is on record as 0/1; in data set [1] (45 mg/kg, 5 administrations), 0/0; in data set [1] (50 mg/kg, 5 administrations) it was 0/0; in data set [1] (55 mg/kg, 5 administrations), 5/4; in data set [1] (60 mg/kg, 5 administrations), 3/4. The “Number of animals that died immediately after the injection (a) ♂/♀” value was 1/2 in data set [1] (45 mg/kg, 5 administrations); 1/1 in data set [1] (50 mg/kg, 5 administrations); 5/3 in data set [1] (55 mg/kg, 5 administrations).

Turning to `COc1cccc2c1C(=O)c1c(O)c3c(c(O)c1C2=O)C[C@@](O)(C(=O)CO)C[C@@H]3O[C@H]1C[C@H](n2cccc2)[C@H](O)[C@H](C)O1` [3′-Pyrrolyldoxorubicin], the “Number of Dead Animals ♂/♀” value in data set [1] (20 mg/kg, 4 administrations) is 5/5; in data set [1] (25 mg/kg, 4 administrations), 5/5; in data set [1] (30 mg/kg, 3 administrations), 5/5. The “Mortality Rate (%)” value worked out at 100% in data set [1] (20 mg/kg, 4 administrations, total dosage 80 mg/kg); 100% in data set [1] (25 mg/kg, 4 administrations, total dosage 100 mg/kg); 100% in data set [1] (30 mg/kg, 3 administrations, total dosage 90 mg/kg).
